SMILES strings stand for the structures. pIC50: −log10 of the molar value.

As a reminder, the pIC50 is the negative decadic logarithm of the IC50, by convention in mol/L.

The first assay deals with Recombinant human cathepsin S (CatS) (Homo sapiens, UniProt P25774). The assay is described as follows: Recombinant human cathepsin S (CatS) inhibition assay, fluorogenic substrate Z-Valine-Valine-Arginine-AMC.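 Further: Baculovirus-expressed CatS in pH 5.0 sodium acetate buffer with DTT and NaCl, fluorescence read each minute over 20 min, inhibition derived from rate slope.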
Chain of Recombinant human cathepsin S (CatS) (P25774 115-331): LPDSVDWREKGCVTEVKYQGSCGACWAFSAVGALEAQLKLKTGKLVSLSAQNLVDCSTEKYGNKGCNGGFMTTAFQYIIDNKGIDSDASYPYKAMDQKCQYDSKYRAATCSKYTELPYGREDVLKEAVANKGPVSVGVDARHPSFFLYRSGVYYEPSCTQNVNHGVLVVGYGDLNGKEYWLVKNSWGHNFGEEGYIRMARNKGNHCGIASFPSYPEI
Details: not given
Turning to `NC(=O)N1CCc2c(c(-c3ccc(Cl)c(C#Cc4ccc(CNCc5ccc(Cl)cc5)cc4)c3)nn2CCCN2CCN(c3ccccc3)CC2)C1` [Example 430, 3-(4-Chloro-3-{[4-({[(4-chlorophenyl)methyl]amino}methyl)phenyl]ethynyl}phenyl)-1-[3-(4-phenylpiperazin-1-yl)propyl]-1,4,6,7-tetrahydro-5H-pyrazolo[4,3-c]pyridine-5-carboxamide], the pIC50 was 7.40.
With `NC(=O)C(=O)N1CCc2c(c(-c3ccc(Cl)c(C#Cc4ccc(Cl)c(C(=O)NC[C@@H]5CCNC5)c4)c3)nn2CCCN2CCSCC2)C1` [Example 578, 5-[(5-{5-[Amino(oxo)acetyl]-1-(3-thiomorpholin-4-ylpropyl)-4,5,6,7-tetrahydro-1H-pyrazolo[4,3-c]pyridin-3-yl}-2-chlorophenyl)ethynyl]-2-chloro-N-[(3R)-pyrrolidin-3-ylmethyl]benzamide], the pIC50 was 7.70.
As to `CC(C)(C)OC(=O)NCc1cccc(C#Cc2cc(-c3nn(CCCN4CCOCC4)c4c3CN(S(C)(=O)=O)CC4)ccc2Cl)c1` [Example 376, 1,1-Dimethylethyl {[3-({2-chloro-5-[5-(methylsulfonyl)-1-(3-morpholin-4-ylpropyl)-4,5,6,7-tetrahydro-1H-pyrazolo[4,3-c]pyridin-3-yl]phenyl}ethynyl)phenyl]methyl}carbamate], the pIC50 was 6.00.
For `CS(=O)(=O)N1CCc2c(c(-c3ccc(Cl)c(CCCNC(=O)c4ccccc4)c3)nn2CCCN2CCOCC2)C1` [Example 64, N-(3-{2-Chloro-5-[5-methanesulfonyl-1-(3-morpholin-4-yl-propyl)-4,5,6,7-tetrahydro-1H-pyrazolo[4,3-c]pyridin-3-yl]-phenyl}-propyl)-benzamide], the negative logarithm of the IC50 (pIC50) was 5.27.
For the compound `CC(=O)N1CCc2c(c(-c3ccc(Cl)c(C#Cc4ccc(CNCc5ccc(Cl)cc5)cc4)c3)nn2CCCN2CCSCC2)C1` [Example 412, 1-[4-({5-[5-Acetyl-1-(3-thiomorpholin-4-ylpropyl)-4,5,6,7-tetrahydro-1H-pyrazolo[4,3-c]pyridin-3-yl]-2-chlorophenyl}ethynyl)phenyl]-N-[(4-chlorophenyl)methyl]methanamine], the negative-log IC50 (pIC50) was 6.80.
Take `COc1ccc(C#Cc2cc(-c3nn(CCCN4CCOCC4)c4c3CN(S(C)(=O)=O)CC4)ccc2Cl)cc1CNCc1ccccc1` [Example 540, 1-[5-({2-Chloro-5-[5-(methylsulfonyl)-1-(3-morpholin-4-ylpropyl)-4,5,6,7-tetrahydro-1H-pyrazolo[4,3-c]pyridin-3-yl]phenyl}ethynyl)-2-(methyloxy)phenyl]-N-(phenylmethyl)methanamine]: the pIC50 was 6.85.
In the case of `C[C@H]1COCCN1CCCn1nc(-c2ccc(Cl)c(C#Cc3ccc(Cl)c(C(=O)NC[C@@H]4CCCN4)c3)c2)c2c1CCN(C(=O)C(N)=O)C2` [Example 556, 5-{[5-(5-[Amino(oxo)acetyl]-1-{3-[(3S)-3-methylmorpholin-4-yl]propyl}-4,5,6,7-tetrahydro-1H-pyrazolo[4,3-c]pyridin-3-yl)-2-chlorophenyl]ethynyl}-2-chloro-N-[(2S)-pyrrolidin-2-ylmethyl]benzamide], the pIC50 was 7.52.
Same read-out and setting: the result for `NC(=O)N1CCc2c(c(-c3ccc(Cl)c(C#Cc4ccc(Cl)c(C(=O)NCCCO)c4)c3)nn2CCCN2CCSCC2)C1` [Example 555, 3-[4-Chloro-3-({4-chloro-3-[(3-hydroxypropyl)carbamoyl]phenyl}ethynyl)phenyl]-1-(3-thiomorpholin-4-ylpropyl)-1,4,6,7-tetrahydro-5H-pyrazolo[4,3-c]pyridine-5-carboxamide] reads 7.70; that for `CC1C(=O)NCCN1CCCn1nc(-c2ccc(Cl)c(C#Cc3ccc(CNCc4ccc(Cl)cc4)cc3)c2)c2c1CCN(S(C)(=O)=O)C2` (stereo not shown) [Example 406, 4-{3-[3-(4-Chloro-3-{[4-({[(4-chlorophenyl)methyl]amino}methyl)phenyl]ethynyl}phenyl)-5-(methylsulfonyl)-4,5,6,7-tetrahydro-1H-pyrazolo[4,3-c]pyridin-1-yl]propyl}-3-methylpiperazin-2-one], 6.34.
`NC(=O)C(=O)N1CCc2c(c(-c3ccc(Cl)c(C#Cc4ccc(CNCc5ccc(Cl)cc5)cc4)c3)nn2CCCN2CCC(C(F)(F)F)CC2)C1` [Example 452, 2-[3-(4-Chloro-3-{[4-({[(4-chlorophenyl)methyl]amino}methyl)phenyl]ethynyl}phenyl)-1-{3-[4-(trifluoromethyl)piperidin-1-yl]propyl}-1,4,6,7-tetrahydro-5H-pyrazolo[4,3-c]pyridin-5-yl]-2-oxoacetamide]: the negative logarithm of the IC50 (pIC50) was 7.00.
On to `CC(NCc1cccc(C#Cc2cc(-c3nn(CCCN4CCOCC4)c4c3CN(S(C)(=O)=O)CC4)ccc2Cl)c1)c1ccccc1` (stereo not shown) [Example 507, N-{[3-({2-Chloro-5-[5-(methylsulfonyl)-1-(3-morpholin-4-ylpropyl)-4,5,6,7-tetrahydro-1H-pyrazolo[4,3-c]pyridin-3-yl]phenyl}ethynyl)phenyl]methyl}-1-phenylethanamine], for which the negative logarithm of the IC50 (pIC50) was 6.24.

Staying with this assay, now noted: CatS IC50.
`NC(=O)N1CCc2c(c(-c3ccc(Cl)c(C#Cc4ccc(C(=O)N5CCCC5)cc4)c3)nn2CCCN2CCSCC2)C1` [Example 164, 3-(4-Chloro-3-{[4-(pyrrolidin-1-ylcarbonyl)phenyl]ethynyl}phenyl)-1-(3-thiomorpholin-4-ylpropyl)-1,4,6,7-tetrahydro-5H-pyrazolo[4,3-c]pyridine-5-carboxamide]: the negative-log IC50 (pIC50) was 6.14.
With `CS(=O)(=O)N1CCc2c(c(-c3ccc(Cl)c(C#Cc4ccc(CNCc5ccc(Cl)cc5)cc4)c3)nn2CCCN2CCC(F)(F)CC2)C1` [Example 357, 1-{4-[(2-Chloro-5-{1-[3-(4,4-difluoropiperidin-1-yl)propyl]-5-(methylsulfonyl)-4,5,6,7-tetrahydro-1H-pyrazolo[4,3-c]pyridin-3-yl}phenyl)ethynyl]phenyl}-N-[(4-chlorophenyl)methyl]methanamine], the negative-log IC50 (pIC50) is 6.68.
Consider `CS(=O)(=O)N1CCc2c(c(-c3ccc(Cl)c(C#Cc4ccc(Cl)c(CNC5CCCC5)c4)c3)nn2CCCN2CCCCC2)C1` [Example 597, N-[2-Chloro-5-({2-chloro-5-[5-(methylsulfonyl)-1-(3-piperidin-1-ylpropyl)-4,5,6,7-tetrahydro-1H-pyrazolo[4,3-c]pyridin-3-yl]phenyl}ethynyl)benzyl]cyclopentanamine], for which the negative-log IC50 (pIC50) was 7.40.
The same measure, in the same setting: as for `CS(=O)(=O)N1CCc2c(c(-c3ccc(Cl)c(CCc4ccc5c(c4)CNCC5)c3)nn2CCCN2CCN(C3CC3)CC2)C1` [Example 229, 7-[2-(2-Chloro-5-{1-[3-(4-cyclopropylpiperazin-1-yl)propyl]-5-(methylsulfonyl)-4,5,6,7-tetrahydro-1H-pyrazolo[4,3-c]pyridin-3-yl}phenyl)ethyl]-1,2,3,4-tetrahydroisoquinoline], the figure is 7.05.

The same assay, now with this note: CatS IC50, Table 2; average of results obtained.
Take `CS(=O)(=O)N1CCc2c(c(-c3ccc(Cl)c(C#CCCO)c3)nn2CCCN2CCOCC2)C1` [Example 45, 4-{2-Chloro-5-[5-methanesulfonyl-1-(3-morpholin-4-yl-propyl)-4,5,6,7-tetrahydro-1H-pyrazolo[4,3-c]pyridin-3-yl]-phenyl}-but-3-yn-1-ol]: the negative-log IC50 (pIC50) was 6.04.

The values are drawn from patent US20080200454A1, “CARBON-LINKED TETRAHYDRO-PYRAZOLO-PYRIDINE MODULATORS OF CATHEPSIN S” (priority 2007, published 2008).
